≈ marks a conversion by molar mass, not a printed value. Each block holds one compound with its values, some of them ahead of it.
Columns and labels:
[1] = Solubility of rapid solvent evaporation products in FaSSIF; type: physicochemical; settings: fassif, thermodynamic from solid
Experimental: About 10 mg of the API control of the compound of formula A and 40 mg of the polymer carrier were transferred to 1 mL of DCM:EtOH=9:1 (v/v) to prepare a solution with 20% drug loading. The resulting clear solution was rapidly evaporated at 80° C. until there was no liquid to prepare a solid dispersion. The API control of the compound of formula A was also treated separately in the same manner.

[2] = In vivo pharmacokinetic study of solid dispersions; parameters: species or system Sprague Dawley (SD) rats; settings: male SD rats, intragastric 300 mg/kg (as compound of formula A), plasma
Experimental: According to Table 16, three solid dispersions, namely, formulation of API+Soluplus, formulation of API+PVP VA64 and formulation of API+HPC SSL, were selected to conduct in vivo pharmacokinetic tests with the corresponding amorphous form of API to study the pharmacokinetic characteristics of solid dispersions with different formulations in animals.
Method: solid dispersions with different formulations were evaluated with the pharmacokinetic characteristics of male Sprague Dawley (SD) rats after intragastric administration.
Materials: SD Rats (Male, 200-250 g, 6-8 Weeks Old, Zhejiang Weitong Lihua).
Steps: the solid dispersion with the formulation of Table 16 was tested by intragastric administration of 300 mg/kg (dosage calculated according to the compound of formula A) to SD rats, and the solvent was 25 mM citrate buffer pH3 containing 5% Tween 80. The animals were free to eat and drink water. Blood was collected from the jugular vein 15 min (0.25 h), 30 min (0.5 h), 60 min (1 h), 2 h, 4 h, 6 h, 8 h and 24 h after administration. Whole blood was collected in an anticoagulant tube containing EDTA-K2, and after thorough mixing, it was centrifuged at 4° C. and 4000 g for 5 minutes to separate plasma. Plasma samples were stored at −75±15° C. until the blood concentration of the compound of formula A was determined by LC-MS/MS. The relevant pharmacokinetic parameters were calculated using the non-compartmental model and linear/log trapezoidal method of Phoenix WinNonlin 6.1.

[3] = Redispersion solubility test of solid dispersions (SGF, then SGF + 2 times volume FaSSIF); type: physicochemical; settings: Concentration 1 mg/mL
Experimental: […] After stirring at 37° C. for 0.25 h and 0.5 h at 500 rpm, about 200 μL of the suspension was centrifuged at 14,000 rpm for 5 min, and the supernatant was diluted by 6 times with diluent for HPLC analysis. After sampling at 0.5 h, 2 times the volume of SGF of FaSSIF was immediately added to the suspension and the mixture was stirred for another 0.25 h, 0.5 h and 1.5 h, and then sampled for HPLC analysis and pH testing.

[4] = Chirality stability in solvents (other studies); type: physicochemical
[5] = Approximate solubility test in solvents; type: physicochemical; settings: organic solvent or mixture, thermodynamic from solid
Experimental: About 5 mg of the API control of Formula A was weighed into a 1.5 mL glass vial, and then a certain amount of different solvents (as shown in Table 1) were gradually added until the solid dissolved or the total volume reached 1 mL. The compound of formula A has a high approximate solubility in a mixed solvent of DCM and MeOH.
Different solvents have different solubility for the compound of formula A, considering the stability factor, DCM:EtOH (9:1, v/v) and acetone:water (9:1, v/v) may be used as solvent systems for the preparation of solid dispersions of the compound of formula A.

solubility at 0.25 h ([1]; 0.25 h): 470 µg/mL (≈ 1010 µM)
solubility at 0.5 h ([1]; 0.5 h): 490 µg/mL (≈ 1050 µM)
solubility at 0.75 h ([1]; 0.75 h): 600 µg/mL (≈ 1290 µM)
solubility at 1 h ([1]; 1 h): 570 µg/mL (≈ 1220 µM)
solubility at 2 h ([1]; 2 h): 450 µg/mL (≈ 964 µM)
AUC(0-inf) ([2]; Sprague Dawley, rat, po): 112 µg·h/mL
AUC(0-t) ([2]; Sprague Dawley, rat, po): 111 µg·h/mL
Cmax ([2]; Sprague Dawley, rat, po): 18700 ng/mL
Tmax ([2]; Sprague Dawley, rat, po): 1 h
half-life ([2]; Sprague Dawley, rat, po): 4.06 h
AUClast/D [2]: 369 ng·kg·h/mL/mg
End point pH [3]: 6.55
solubility at 0.75 h ([3]; SGF + 2 times volume FaSSIF, fassif, thermodynamic from solid, 37° C., read-out: Redispersion solubility, Step 2: SGF + 2 times volume FaSSIF (0.75 hr)): 460 µg/mL
solubility at 1 h ([3]; SGF + 2 times volume FaSSIF, fassif, thermodynamic from solid, 37° C., read-out: Redispersion solubility, Step 2: SGF + 2 times volume FaSSIF (1.0 hr)): 440 µg/mL
solubility at 2 h ([3]; SGF + 2 times volume FaSSIF, pH 6.55, fassif, thermodynamic from solid, 37° C., read-out: Redispersion solubility, Step 2: SGF + 2 times volume FaSSIF (2.0 hr)): 270 µg/mL
solubility at 0.25 h ([3]; simulated gastric fluid (SGF), simulated gastric fluid, thermodynamic from solid, 37° C., read-out: Redispersion solubility, Step 1: SGF (0.25 hr)): 960 µg/mL
solubility at 0.5 h ([3]; simulated gastric fluid (SGF), simulated gastric fluid, thermodynamic from solid, 37° C., read-out: Redispersion solubility, Step 1: SGF (0.5 hr)): 980 µg/mL
Compound: O=C1CC[C@H](N2Cc3cc(C(=O)N[C@H](c4ccc(Cl)cn4)C4CCC4)ccc3C2=O)C(=O)N1 [Amorphous form of API, N—((S)-(5-chloropyridin-2-yl)(cyclobutyl)methyl)-2-((S)-2,6-dioxopiperidin-3-yl)-1-oxoisoindoline-5-carboxamide]

Chirality stability ([4]; in MeOH): rapidly racemized
Chirality stability ([4]; in acetone and ethanol): better chirality stability
solubility ([5]; solvent ACN): < 5000 µg/mL
solubility ([5]; solvent Acetone): < 5000 µg/mL
solubility ([5]; solvent Acetone:ACN (1:1)): < 5000 µg/mL
solubility ([5]; solvent Acetone:DCM (1:1)): < 5000 µg/mL
solubility ([5]; solvent Acetone:DCM (4:1)): < 5000 µg/mL
solubility ([5]; solvent Acetone:THF (1:1)): < 5000 µg/mL
solubility ([5]; solvent DCM): < 5000 µg/mL
solubility ([5]; solvent DCM:MeOH (1:1)): 25000 to 50000 µg/mL
solubility ([5]; solvent DCM:MeOH (2:1)): 50000 to 100000 µg/mL
solubility ([5]; solvent DCM:MeOH (4:1)): 50000 to 100000 µg/mL
solubility ([5]; solvent DCM:MeOH (5:1)): 50000 to 100000 µg/mL
solubility ([5]; solvent DCM:MeOH (7:1)): 50000 to 100000 µg/mL
solubility ([5]; solvent DCM:MeOH (9:1)): 25000 to 50000 µg/mL
solubility ([5]; solvent DCM:MeOH (99:1)): < 5000 µg/mL
solubility ([5]; solvent DCM:THF (1:1)): < 5000 µg/mL
solubility ([5]; solvent DCM:THF (4:1)): < 5000 µg/mL
solubility ([5]; solvent Ethyl acetate): < 5000 µg/mL
solubility ([5]; solvent MeOH): < 5000 µg/mL
solubility ([5]; solvent THF): < 5000 µg/mL
solubility ([5]; v/v), solvent Acetone:Water (9:1)): 15000 to 50000 µg/mL
solubility ([5]; v/v), solvent DCM:EtOH (9:1)): 5000 to 15000 µg/mL
Compound: O=C1CC[C@H](N2Cc3cc(C(=O)N[C@H](c4ccc(Cl)cn4)C4CCC4)ccc3C2=O)C(=O)N1 [compound of formula A, N—((S)-(5-chloropyridin-2-yl)(cyclobutyl)methyl)-2-((S)-2,6-dioxopiperidin-3-yl)-1-oxoisoindoline-5-carboxamide]

Reference: patent US20260199316A1, “SOLID DISPERSION, PREPARATION METHOD THEREFOR, AND USE THEREOF” (HANGZHOU GLUBIO PHARMACEUTICAL CO., LTD, priority 2022, published 2026)
